Earlier results in patent US4866035A, “Dipeptidyl saccharides as host resistance enhancers in AIDS-immuno-compromised hosts and methods of use” (Merck & Co., Inc., priority 1987, dated 1989).
Like-named read-outs stand apart in the source and are kept apart here.

Key:
AIDS or ARC patients = conditions: ARC or AIDS-related conditions
[1] = in vivo
[2] = molecular target: HIV reverse transcriptase (Human immunodeficiency virus type 1 group M subtype B, UniProt P04585)
[3] = tested on: human immunodeficiency virus (HIV)
reverse transcriptase = conditions: in vitro
[4] = clinical trials or use in patients

Row | Molecule | clinical effect in patients (AIDS or ARC patients) | adverse effects, tolerability (patients; human, in vivo) | other results
1 | CO[C@H]1/C=C/O[C@@]2(C)Oc3c(C)c(O)c4c(c3C2=O)C2=NC3(CCN(CC(C)C)CC3)NC2=C(NC(=O)/C(C)=C\C=C\[C@H](C)[C@H](O)[C@@H](C)[C@@H](O)[C@@H](C)[C@H](OC(C)=O)[C@@H]1C)C4=O [Ansamycin] | some efficacy | – | –
2 | Cc1cn([C@H]2C[C@H](N=[N+]=[N-])[C@@H](CO)O2)c(=O)[nH]c1=O [Azidothymidine, 3'-azido 3'-deoxythymidine] | promise in prolonging lives | – | half life in the body [1]: relatively short half life; penetration of central nervous system [1]: effectively penetrates central nervous system; oral absorption ([1]; po): Well absorbed orally
3 | CC(C)(N1CC1C#N)N1CC1C(N)=O (stereo not drawn) [Azimexon] | improvements in symptoms and immune function in patients with ARC but not AIDS | – | adverse effects, tolerability (patients; [4]): mild hemolysis
4 | CC(C)(S)[C@@H](N)C(=O)O [D-Penicillamine, 3-mercapto D-valine] | suppressed the virus | temporarily depressed T cell levels | –
5 | O=C(O)P(=O)(O)O [Foscarnet, trioodium phosphonoformate] | – | serious side effects | inhibition of HIV reverse transcriptase [2]: Inhibits HIV reverse transcriptase activity in vitro
6 | CC(=O)Nc1ccc(C(=O)O)cc1.CC(=O)Nc1ccc(C(=O)O)cc1.CC(=O)Nc1ccc(C(=O)O)cc1.CC(O)CN(C)C.CC(O)CN(C)C.CC(O)CN(C)C.O=c1[nH]cnc2c1ncn2[C@@H]1O[C@H](CO)[C@@H](O)[C@H]1O [Inosine pranobex] | improve immune function in ARC patients | – | –
7 | NC(=O)c1ncn([C@@H]2O[C@H](CO)[C@@H](O)[C@H]2O)n1 [Ribavirin, 1-β-D-ribofuranosyl-1,2,4-triazole 3-carboxamide] | inhibited viral replication and improved immune function | – | adverse effects, tolerability (patients; [4]): well tolerated
8 | Cc1ccc(C(=O)Nc2ccc(S(=O)(=O)O)c3cc(S(=O)(=O)O)cc(S(=O)(=O)O)c23)cc1NC(=O)c1cccc(NC(=O)Nc2cccc(C(=O)Nc3cc(C(=O)Nc4ccc(S(=O)(=O)O)c5cc(S(=O)(=O)O)cc(S(=O)(=O)O)c45)ccc3C)c2)c1 [Suramin] | – | serious side effects | inhibition of HIV reverse transcriptase [2]: Potent inhibitor of HIV reverse transcriptase
9 | ammonium-21-tungsto-9-antimoniate [HPA-23] | no therapeutic benefit has been documented | – | effect on HIV growth or infectivity [3]: some tendency to check the growth of HIV; inhibition of reverse transcriptase in several retroviruses (reverse transcriptase): Inhibits reverse transcriptase
10 | α-Interferon | induced tumor regression in some AIDS-related Kaposi's sarcoma cases | – | effect on HIV growth or infectivity [3]: Checks the growth of HIV in vitro
